Assays:
[1] = tested on: p-Akt (S473) in BJAB cells; test: Cell-based ELISA for p-Akt (S473), BJAB; details: Homo sapiens, 24 h, mean ± SEM, read-out: IC50 (Akt dephosphorylation, p-Akt S473)
Method: After the treatment, cells were lysed with ice-cold lysis buffer mentioned above and equivalent aliquots of protein were subjected to a PathScan phospho-Akt1 (Ser473) sandwich ELISA kit (Cell Signaling Technology) following manufacture's instruction. In briefly, whole cell lysate was first half-diluted with sample diluent and added 100 μl into the well incubating overnight at 4°C. After the reaction, wells were washed 4 times with 200 μl wash buffer and then added 100 μl of Akt1 mouse detection antibody incubating 1 h at 37°C. Washed 4 times again and then added 100 μl of anti-mouse IgG HRP-linked antibody incubating 30 min at 37°C. After incubation, washed the well once again and then added 100 μl TMB substrate for color production and finally added 100 μl STOP solution. The results were measured by spectrophotometer at wavelength 450 nm.

Ramos cells [2] = test: Ramos engraftment survival model in NOD/SCID mice; type: in vivo; details: daily oral gavage, MPT0E028 100 mg/kg, SAHA 200 mg/kg
Text: (§1) The mice were carefully maintained and all animal procedures were in accordance with the Institutional Animal Care and Use Committee procedures and guidelines. All animal experiments followed ethical standards, and protocols has been reviewed and approved by Animal Use and Management Committee of National Taiwan University (IACUC Approval No: 20100225).
In Ramos engrafment model, human B-cell lymphoma Ramos cells were resuspended at 10^7 cells/ml in culture medium at room temperature, and 2×10^6 cells were inoculated into male NOD/SCID mice via tail vein. Treatment began 1 week after engrafment. […] Survival rate was used as end point for this study.

BJAB tumors = test: BJAB xenograft tumor growth model in nude mice; type: in vivo; details: po, qd, 31 days
Method: as §1
In BJAB xenograft model, the male nude mice were injected subcutaneously with the same volume of BD Matrigel Matrix HC (BD bioscience, catalog 354248) and BJAB cells (2×10^7 cell/mouse) into the flank of each animal. […] Tumor size was measured twice weekly and calculated from V = 0.5 lw^2, where w = width (w) and l = length (l). At the end of study, tumors were carefully removed and frozen in liquid nitrogen for subsequent western analysis.

HUVEC cells = test: MTT cell viability assay, normal HUVEC cells; type: cell-based; details: Homo sapiens, 24 h, read-out: IC50 (cell viability, toxicity)
Method: (§2) Two fast-growing malignant B cell lymphoma (Burkitt lymphoma) cell lines and human umbilical vein endothelial cells (HUVEC) were used. Ramos and HUVEC cells were purchased from American Type Culture Collection (Manassas, VA, USA) and BJAB cells were a kind gift from Professor Ping-Ning Hsu (National Taiwan University Hospital and National Taiwan University, College of Medicine, Taipei, Taiwan). […] All cells were maintained in humidified air containing 5% CO2 at 37°C. Cell density was maintained between 1×10^5 and 1×10^6 cell/ml and passaged every 2 to 3 days.
(§3) Cell viability was assessed by MTT assay. […] After the treatment, 100 μl of 0.5 mg/ml 3-(4,5-Dimethylthiazol-2-yl)-2,5-diphenyl-tetrazolium bromide (MTT) were added to each well and incubated at 37°C to stained cells forming an insoluble blue formazan product. After 1 h incubation, 100 μl of extraction reagent (0.1M sodium acetate buffer or DMSO) were added to each well and mix thoroughly to lyse cells. The plates were then measured at 550 nm using an enzyme-linked immunosorbent assay (ELISA) reader (Packard, Meriden, CT, USA).

Ramos cells [3] = test: MTT cell viability assay, Ramos B-cell lymphoma cells; type: cell-based; details: Homo sapiens, 24 h, mean ± SEM, read-out: IC50 (growth inhibition)
Method: as §2, §3

BJAB cells = test: MTT cell viability assay, BJAB B-cell lymphoma cells; type: cell-based; details: Homo sapiens, 24 h, mean ± SEM, read-out: IC50 (growth inhibition)
Method: as §2, §3

Akt = Akt (Homo sapiens, UniProt P31749); test: Enzyme-based Akt kinase activity assay (Kinome Diversity Screen, ELISA quantitation); type: biochemical; details: crosstide substrate
Chain of Akt (P31749 whole entry): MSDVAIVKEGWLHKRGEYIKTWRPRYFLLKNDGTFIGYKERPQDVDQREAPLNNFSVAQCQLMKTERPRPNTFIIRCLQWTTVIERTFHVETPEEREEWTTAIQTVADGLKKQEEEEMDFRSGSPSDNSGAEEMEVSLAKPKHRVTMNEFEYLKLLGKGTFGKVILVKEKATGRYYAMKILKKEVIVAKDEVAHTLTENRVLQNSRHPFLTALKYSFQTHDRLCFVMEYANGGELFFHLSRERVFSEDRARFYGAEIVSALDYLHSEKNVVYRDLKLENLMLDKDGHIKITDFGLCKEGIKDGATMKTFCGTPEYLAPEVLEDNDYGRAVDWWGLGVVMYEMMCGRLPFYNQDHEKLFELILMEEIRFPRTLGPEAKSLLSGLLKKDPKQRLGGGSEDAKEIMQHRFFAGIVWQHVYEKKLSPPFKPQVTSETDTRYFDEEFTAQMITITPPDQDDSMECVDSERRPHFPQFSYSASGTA
Method: In briefly, Akt activity was assayed using human recombinant insect Sf21 cells for Akt kinase source and crosstide peptide ([…], 15 μg/mL) as a substrate. Cell lysate was incubated with kinase assay buffer (50 mM HEPES pH 7.4, 10 mM MgCl2, 0.2 mM Na3VO4, and 1 mM DTT) for 60 min at 25°C, and analyzed by ELISA quantitation of Crosstide-P.

[4] = Body weight of BJAB tumor bearing mice; type: in vivo; details: nude mice, 50-200 mg/kg, po, qd, 31 days
Method: The mice were carefully maintained and all animal procedures were in accordance with the Institutional Animal Care and Use Committee procedures and guidelines. […] Tumor size was measured twice weekly and calculated from V = 0.5 lw^2, where w = width (w) and l = length (l). At the end of study, tumors were carefully removed and frozen in liquid nitrogen for subsequent western analysis.

HDAC1, 2, 6, and 8 = details: range over the four isoforms; cited from earlier work
HDAC4 = details: cited from earlier work
[5] = tested on: HDAC enzyme activity in BJAB cells; test: Cell-based HDAC fluorescence activity assay, BJAB; details: Homo sapiens, 24 h, read-out: IC50 (HDAC enzyme activity)
Method: (§4) After the incubation, the lysine developer in this kit was added and the mixture was incubated for another 30 min at 37°C.

[6] = tested on: HDAC enzyme activity in Ramos cells; test: Cell-based HDAC fluorescence activity assay, Ramos; details: Homo sapiens, 24 h, read-out: IC50 (HDAC enzyme activity)
Method: as §4

| Compound | IC50 [1] [µM] | Survival rate compared with control group (Ramos cells [2]) | TGI (BJAB tumors; 200 mg/kg) [%] | IC50 (HUVEC cells) [µM] | IC50 (Ramos cells [3]) [µM] | IC50 (BJAB cells) [µM] | IC50 (Akt) [µM] | TGI (BJAB tumors; 100 mg/kg) [%] | Body weight difference between groups [4] | IC50 (HDAC1, 2, 6, and 8) [µM] | effect upon HDAC4 (HDAC4) | IC50 [5] [µM] | IC50 [6] [µM] |
| --- | --- | --- | --- | --- | --- | --- | --- | --- | --- | --- | --- | --- | --- |
| O=C(CCCCCCC(=O)Nc1ccccc1)NO [SAHA, reference compound] | 32.9 ± 11.3 | no significant efficacy | 17.9 |  |  |  |  |  |  |  |  |  |  |
| O=C(C=Cc1ccc2c(c1)CCN2S(=O)(=O)c1ccccc1)NO [MPT0E028, 3-(1-Benzenesulfonyl-2,3-dihydro-1H-indol-5-yl)-N-hydroxy-acrylamide] | 5.9 ± 1.6 | significantly prolonged | 40.4 | > 30 | 0.65 ± 0.1 | 1.45 ± 0.5 | 5.78 | 20.8 | no significant difference in body weight | 0.0295 to 2.53 | no effect | 4.54 ± 1.2 | 2.88 ± 1.9 |

Reference: PMC4467128 (Oncotarget, 2014)
